# Experimental data reported in PubChem BioAssay (NCI).
#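 Values below derive from 48-hour exposures of cells grown in 96-well plates, with endpoints linearly interpolated between the two concentrations bracketing the appropriate inhibition level. GI50 = concentration required for 50% inhibition of growth. TGI marks complete inhibition of growth.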
# Columns and labels:
# Assay in all cases: NCI tumour cell line growth inhibition, 48 h
# [1] = test system: 786-0 renal
# [2] = test system: A498 renal
# [3] = test system: A549 NSCLC
# [4] = test system: ACHN renal
# [5] = test system: BT-549 breast
# [6] = test system: CAKI-1 renal
# [7] = test system: CCRF-CEM leukemia
# [8] = test system: COLO 205 colon
# [9] = test system: DU-145 prostate
# [10] = test system: EKVX NSCLC
# [11] = test system: HCT-116 colon
# [12] = test system: HCT-15 colon
# [13] = test system: HL-60(TB) leukemia
# [14] = test system: HOP-62 NSCLC
# [15] = test system: HOP-92 NSCLC
# [16] = test system: HS 578T breast
# [17] = test system: HT29 colon
# [18] = test system: IGROV1 ovarian
# [19] = test system: K-562 leukemia
# [20] = test system: KM12 colon
# [21] = test system: LOX IMVI melanoma
# [22] = test system: M14 melanoma
# [23] = test system: MALME-3M melanoma
# [24] = test system: MCF7 breast
# [25] = test system: MDA-MB-231 breast
# [26] = test system: MDA-MB-435
# [27] = test system: MOLT-4 leukemia
# [28] = test system: NCI-H226 lung
# [29] = test system: NCI-H23 lung
# [30] = test system: NCI-H460 lung
# [31] = test system: NCI-H522 lung
# [32] = test system: NCI/ADR-RES ovarian
# [33] = test system: OVCAR-3 ovarian
# [34] = test system: OVCAR-4 ovarian
# [35] = test system: OVCAR-5 ovarian
# [36] = test system: OVCAR-8 ovarian
# [37] = test system: PC-3 prostate
# [38] = test system: RPMI-8226 leukemia
# [39] = test system: RXF 393 renal
# [40] = test system: SF-268 CNS
# [41] = test system: SF-295 CNS
# [42] = test system: SF-539 CNS
# [43] = test system: SK-MEL-2 melanoma
# [44] = test system: SK-MEL-28 melanoma
# [45] = test system: SK-MEL-5 melanoma
# [46] = test system: SK-OV-3 ovarian
# [47] = test system: SN12C renal
# [48] = test system: SNB-19 CNS
# [49] = test system: SNB-75 CNS
# [50] = test system: SW-620 colon
# [51] = test system: T-47D breast
# [52] = test system: TK-10 renal
# [53] = test system: U251 CNS
# [54] = test system: UACC-257 melanoma
# [55] = test system: UACC-62 melanoma
# [56] = test system: UO-31 renal
smiles,measurement,setting,value
C[C@@H]1CCC2[C@@H](C)[C@@H](OCC(CO[C@H]3OC4O[C@@]5(C)CC[C@H]6[C@H](C)CCC([C@H]3C)[C@@]46OO5)OC(=O)CCC(=O)O)OC3O[C@@]4(C)CC[C@@H]1[C@]32OO4 (stereo not given in full),GI50,[1],< 0.0151 µM
same,TGI,[1],17.3 µM
same,GI50,[2],13.8 µM
same,TGI,[2],31.3 µM
same,GI50,[3],0.971 µM
same,TGI,[3],32.6 µM
same,GI50,[4],0.126 µM
same,TGI,[4],17.5 µM
same,GI50,[5],3.74 µM
same,TGI,[5],29.4 µM
same,GI50,[6],0.022 µM
same,TGI,[6],0.477 µM
same,GI50,[7],< 0.0279 µM
same,TGI,[7],> 47.3 µM
same,GI50,[8],< 0.01 µM
same,TGI,[8],12.5 µM
same,GI50,[9],6.4 µM
same,TGI,[9],27.3 µM
same,GI50,[10],3.03 µM
same,TGI,[10],41 µM
same,GI50,[11],< 0.01 µM
same,TGI,[11],14.6 µM
same,GI50,[12],< 0.01 µM
same,TGI,[12],12.8 µM
same,GI50,[13],0.0111 µM
same,TGI,[13],0.513 µM
same,GI50,[14],0.99 µM
same,TGI,[14],22.1 µM
same,GI50,[15],0.097 µM
same,TGI,[15],3.26 µM
same,GI50,[16],1.81 µM
same,TGI,[16],34.9 µM
same,GI50,[17],< 0.01 µM
same,TGI,[17],> 34.9 µM
same,GI50,[18],12.6 µM
same,TGI,[18],> 69 µM
same,GI50,[19],< 0.0479 µM
same,TGI,[19],> 42.2 µM
same,GI50,[20],< 0.01 µM
same,GI50,[21],< 0.01 µM
same,TGI,[21],> 100 µM
same,GI50,[22],4.05 µM
same,TGI,[22],26.9 µM
same,GI50,[23],< 0.01 µM
same,TGI,[23],12.4 µM
same,GI50,[24],< 0.01 µM
same,TGI,[24],16.7 µM
same,GI50,[25],0.0602 µM
same,TGI,[25],7.95 µM
same,GI50,[26],< 0.0115 µM
same,TGI,[26],13 µM
same,GI50,[27],0.537 µM
same,TGI,[27],> 48.7 µM
same,GI50,[28],0.933 µM
same,TGI,[28],40 µM
same,GI50,[29],0.0101 µM
same,TGI,[29],11.3 µM
same,GI50,[30],< 0.0183 µM
same,TGI,[30],15.8 µM
same,GI50,[31],0.0628 µM
same,TGI,[31],15.4 µM
same,GI50,[32],0.245 µM
same,TGI,[32],6.23 µM
same,GI50,[33],0.02 µM
same,TGI,[33],15.8 µM
same,GI50,[34],0.0583 µM
same,TGI,[34],26.3 µM
same,GI50,[35],< 0.01 µM
same,TGI,[35],14.7 µM
same,GI50,[36],0.511 µM
same,TGI,[36],27.2 µM
same,GI50,[37],< 0.01 µM
same,TGI,[37],14.7 µM
same,GI50,[38],< 0.01 µM
same,TGI,[38],16.5 µM
same,GI50,[39],< 0.01 µM
same,TGI,[39],0.205 µM
same,TGI,[40],20.1 µM
same,GI50,[41],0.0335 µM
same,TGI,[41],15.8 µM
same,GI50,[42],2.26 µM
same,TGI,[42],28.8 µM
same,GI50,[43],4.22 µM
same,TGI,[43],> 51.6 µM
same,GI50,[44],11.4 µM
same,TGI,[44],> 47.4 µM
same,GI50,[45],0.147 µM
same,TGI,[45],17.5 µM
same,GI50,[46],27.2 µM
same,TGI,[46],> 100 µM
same,GI50,[47],0.374 µM
same,TGI,[47],23.4 µM
same,GI50,[48],10.1 µM
same,TGI,[48],23.1 µM
same,GI50,[49],16.1 µM
same,TGI,[49],36.6 µM
same,GI50,[50],0.0285 µM
same,TGI,[50],18.1 µM
same,GI50,[51],< 0.01 µM
same,TGI,[51],> 100 µM
same,GI50,[52],< 0.046 µM
same,TGI,[52],29.5 µM
same,GI50,[53],< 0.01 µM
same,TGI,[53],24.5 µM
same,GI50,[54],0.708 µM
same,TGI,[54],37.3 µM
same,GI50,[55],0.0765 µM
same,TGI,[55],21.2 µM
same,GI50,[56],1.57 µM
same,TGI,[56],> 46 µM
